One compound from US20140227357A1, “FILL FORMULATIONS AND CAPSULES AND METHOD OF USE TO AVOID MIGRATION OF FILL INTO OR THROUGH THE SHELL” (CAPSUGEL BELGIUM NV, priority 2011, published 2014) can be followed below.

SMILES strings stand for the structures.

The data set can be described thus: Technical batch stability study, 2-butanol and 2-pentanone assay by gas chromatography. Format: physicochemical. The settings on record: in Formulation 4, sealed LICAPS.

With `CCCC(C)=O` [Formulation 2-pentanone, 2-pentanone], the “assay, % label claim” value runs as follows: (6 months at 25° C./60% RH in PET/Alu/PE bags) 100.3%; (6 months at 40° C./75% RH in PET/Alu/PE bags) 99.8%.
